Laboratory results as given in US9179674B2, “Macrocyclic picolinamide compounds with fungicidal activity” (DOW AGROSCIENCES LLC, priority 2013, dated 2015).
Read-outs that look alike come from different tables or passages of the source.

What was measured:
[1] = system: Mycosphaerella graminicola; Anamorph: Septoria tritici; test: Leaf Blotch of Wheat fungicidal activity (SEPTTR); type: in vivo; settings: Zymoseptoria tritici; for pest or weed control at 100 ppm: rate 100 ppm; for pest or weed control at 121.5 g/ha: rate 121.5 g/H
Method in brief: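 Acetone solutions diluted with nine volumes of water containing 110 ppm Triton X-100, sprayed to run-off on first-leaf wheat seedlings (Yuma), inoculated with S. tritici before or after treatment. Plants held in dew chambers, then in a 20 °C greenhouse. Disease severity (0–100%) scored when untreated plants fully symptomatic; % control relative to untreated.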

Puccinia triticina = test: Wheat Brown Rust fungicidal activity (PUCCRT); type: in vivo; settings: Puccinia triticina; for pest or weed control at 100 ppm: rate 100 ppm; for pest or weed control at 121.5 g/ha: rate 121.5 g/H
Method in brief: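 Yuma wheat seedlings at first-leaf stage sprayed to run-off (acetone solution in water with 110 ppm Triton X-100) or track-sprayed as EC with 0.1% Trycol 5941; inoculated with P. triticina spores before or after treatment. Overnight dark dew at 22° C., then greenhouse 24° C.; disease severity 0–100% gives percent control vs untreated.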

[2] = 24 h, 1 Day Protectant, read-out: Disease control SEPTTR 1DP
[3] = 72 h, 3 Day Curative, read-out: Disease control SEPTTR 3DC
[4] = 24 h, 1 Day Protectant, read-out: Disease control PUCCRT 1DP
[5] = 72 h, 3 Day Curative, read-out: Disease control PUCCRT 3DC

Compound | pest or weed control at 100 ppm [1, 2] | pest or weed control at 100 ppm [1, 3] | pest or weed control at 100 ppm (Puccinia triticina; [4]) | pest or weed control at 100 ppm (Puccinia triticina; [5]) | melting point | pest or weed control at 121.5 g/ha [1, 2] | pest or weed control at 121.5 g/ha [1, 3] | pest or weed control at 121.5 g/ha (Puccinia triticina; [4]) | pest or weed control at 121.5 g/ha (Puccinia triticina; [5])
COc1ccnc(C(=O)N[C@H]2COC[C@H](Cc3ccc(Cl)cc3Cl)[C@@H](OCC(C)C)[C@H](C)OC2=O)c1O [Compound F42] | 80 to 100% | 80 to 100% | 80 to 100% | 80 to 100% | 60 to 64 °C | – | – | – | –
CCCCCO[C@@H]1[C@@H](Cc2ccc(Cl)cc2Cl)COC[C@H](NC(=O)c2nccc(OC)c2O)C(=O)O[C@H]1C [Compound F43] | 80 to 100% | 0 to 80% | 0 to 80% | – | 50 to 54 °C | – | – | – | –
COc1ccnc(C(=O)N[C@H]2COC[C@H](CC3CCCC3)[C@@H](OC(=O)C(C)C)[C@H](C)OC2=O)c1O [Compound F45] | 80 to 100% | 80 to 100% | 80 to 100% | 0 to 80% | 55 to 59 °C | – | – | – | –
COc1ccnc(C(=O)N[C@H]2COC[C@H](CC3CCCC3)[C@@H](OCC(C)C)[C@H](C)OC2=O)c1O [Compound F46] | 80 to 100% | 80 to 100% | 80 to 100% | 80 to 100% | 132 to 134 °C | – | – | – | –
CCCCCO[C@@H]1[C@@H](CC2CCCC2)COC[C@H](NC(=O)c2nccc(OC)c2O)C(=O)O[C@H]1C [Compound F47] | 80 to 100% | 80 to 100% | 80 to 100% | 80 to 100% | 109 to 111 °C | – | – | – | –
COc1ccnc(C(=O)N[C@H]2COC[C@H](CCc3ccccc3)[C@@H](OCCCC(F)(F)F)[C@H](C)OC2=O)c1OC(C)=O [Compound F49] | 80 to 100% | 80 to 100% | 80 to 100% | 80 to 100% | 59 to 64 °C | 80 to 100% | 80 to 100% | 80 to 100% | 0 to 80%
COc1ccnc(C(=O)N[C@H]2COC[C@H](CCc3ccccc3)[C@@H](OCC(C)C)[C@H](C)OC2=O)c1OC(C)=O [Compound F50] | 80 to 100% | 80 to 100% | 80 to 100% | 80 to 100% | 61 to 65 °C | – | – | – | –
COc1ccnc(C(=O)N[C@H]2COC[C@H](Cc3cccc4ccccc34)[C@@H](OC(=O)C(C)C)[C@H](C)OC2=O)c1OC(C)=O [Compound F51, (3S,6S,7R,8S)-3-(3-acetoxy-4-methoxypicolinamido)-6-methyl-8-(naphthalen-1-ylmethyl)-4-oxo-1,5-dioxonan-7-yl isobutyrate] | 80 to 100% | 80 to 100% | 80 to 100% | 0 to 80% | 104 to 108 °C | – | – | – | –
CCCCCO[C@@H]1[C@@H](Cc2cccc3ccccc23)COC[C@H](NC(=O)c2nccc(OC)c2OC(C)=O)C(=O)O[C@H]1C [Compound F52] | 80 to 100% | 80 to 100% | 80 to 100% | 0 to 80% | 85 to 91 °C | – | – | – | –
COc1ccnc(C(=O)N[C@H]2COC[C@H](Cc3ccc(C)cc3)[C@@H](OC(=O)C(C)C)[C@H](C)OC2=O)c1OC(C)=O [Compound F54] | 80 to 100% | 80 to 100% | 80 to 100% | 80 to 100% | 88 to 93 °C | 80 to 100% | 80 to 100% | 80 to 100% | 0 to 80%
COc1ccnc(C(=O)N[C@H]2COC[C@H](Cc3ccc(F)cc3)[C@@H](OC(=O)C(C)C)[C@H](C)OC2=O)c1OC(C)=O [Compound F56] | 80 to 100% | 80 to 100% | 80 to 100% | 80 to 100% | 74 to 79 °C | – | – | – | –
COc1ccnc(C(=O)N[C@H]2COC[C@H](Cc3ccc(Cl)cc3Cl)[C@@H](OCC(C)C)[C@H](C)OC2=O)c1OC(C)=O [Compound F74] | 80 to 100% | 80 to 100% | 80 to 100% | 80 to 100% | 69 to 73 °C | – | – | – | –
CCCCCO[C@@H]1[C@@H](Cc2ccc(Cl)cc2Cl)COC[C@H](NC(=O)c2nccc(OC)c2OC(C)=O)C(=O)O[C@H]1C [Compound F75] | 80 to 100% | 80 to 100% | 80 to 100% | 80 to 100% | 55 to 59 °C | 80 to 100% | 80 to 100% | 80 to 100% | 0 to 80%
COc1ccnc(C(=O)N[C@H]2COC[C@H](Cc3ccc(Cl)cc3Cl)[C@@H](Oc3ccc(C)cc3)[C@H](C)OC2=O)c1OC(C)=O [Compound F76] | 0 to 80% | – | 80 to 100% | – | 97 to 101 °C | 80 to 100% | – | 80 to 100% | 0 to 80%
COc1ccnc(C(=O)N[C@H]2COC[C@H](CC3CCCC3)[C@@H](OC(=O)C(C)C)[C@H](C)OC2=O)c1OC(C)=O [Compound F77] | 80 to 100% | 80 to 100% | 80 to 100% | 80 to 100% | 66 to 69 °C | 80 to 100% | 80 to 100% | 80 to 100% | 80 to 100%
COc1ccnc(C(=O)N[C@H]2COC[C@H](CC3CCCC3)[C@@H](OCC(C)C)[C@H](C)OC2=O)c1OC(C)=O [Compound F78] | 80 to 100% | 80 to 100% | 80 to 100% | 80 to 100% | 56 to 59 °C | – | – | – | –
CCCCCO[C@@H]1[C@@H](CC2CCCC2)COC[C@H](NC(=O)c2nccc(OC)c2OC(C)=O)C(=O)O[C@H]1C [Compound F79] | 80 to 100% | 80 to 100% | 80 to 100% | 80 to 100% | 46 to 51 °C | 80 to 100% | 80 to 100% | 80 to 100% | 0 to 80%
COc1ccnc(C(=O)N[C@H]2COC[C@H](CCc3ccccc3)[C@@H](OC3CCCC3)[C@H](C)OC2=O)c1OCOC(C)=O [Compound F81] | 80 to 100% | 80 to 100% | 80 to 100% | 80 to 100% | 45 to 50 °C | – | – | – | –
COc1ccnc(C(=O)N[C@H]2COC[C@H](Cc3cccc4ccccc34)[C@@H](OCCCC(F)(F)F)[C@H](C)OC2=O)c1OCOC(C)=O [Compound F84] | 80 to 100% | – | 80 to 100% | 80 to 100% | 61 to 68 °C | – | – | – | –
COc1ccnc(C(=O)N[C@H]2COC[C@H](Cc3cccc4ccccc34)[C@@H](Oc3ccc(C)cc3)[C@H](C)OC2=O)c1OCOC(C)=O [Compound F85] | 80 to 100% | 0 to 80% | 80 to 100% | 0 to 80% | 83 to 88 °C | – | – | – | –
CCCCCO[C@@H]1[C@@H](Cc2ccc(C)cc2)COC[C@H](NC(=O)c2nccc(OC)c2OCOC(C)=O)C(=O)O[C@H]1C [Compound F88] | 80 to 100% | 80 to 100% | 80 to 100% | 80 to 100% | 39 to 43 °C | – | – | – | –
COc1ccnc(C(=O)N[C@H]2COC[C@H](Cc3ccc(C)cc3)[C@@H](OC(=O)C(C)C)[C@H](C)OC2=O)c1OCOC(C)=O [Compound F89] | 80 to 100% | 80 to 100% | 80 to 100% | 80 to 100% | 43 to 47 °C | – | – | – | –
COc1ccnc(C(=O)N[C@H]2COC[C@H](Cc3ccc(F)cc3)[C@@H](OC(=O)C3CC3)[C@H](C)OC2=O)c1OCOC(C)=O [Compound F90] | 80 to 100% | 80 to 100% | 80 to 100% | 80 to 100% | 59 to 64 °C | – | – | – | –
COc1ccnc(C(=O)N[C@H]2COC[C@H](Cc3ccc(F)cc3)[C@@H](OC(=O)C(C)C)[C@H](C)OC2=O)c1OCOC(C)=O [Compound F91] | 80 to 100% | 80 to 100% | 80 to 100% | 80 to 100% | 52 to 56 °C | – | – | – | –
COc1ccnc(C(=O)N[C@H]2COC[C@H](Cc3ccc(Cl)cc3Cl)[C@@H](OCC(C)C)[C@H](C)OC2=O)c1OCOC(C)=O [Compound F111] | 80 to 100% | 80 to 100% | 80 to 100% | 80 to 100% | 49 to 53 °C | – | – | – | –
